Test results from ChEMBL document CHEMBL5214984, “Identification of Organic Anion Transporter 2 Inhibitors: Screening, Structure-Based Analysis, and Clinical Drug Interaction Risk Assessment” (J Med Chem, 2022).

Legend:
[1] = Lipophilicity, log D of the compound; conditions: octanol/water
[2] = Dissociation constant, pKa of the compound; format: physicochemical
[3] = Inhibition of human OAT2 tv.1 variant expressed in HEK293 cells assessed as inhibition of [3H]cGMP uptake by scintillation analysis; format: ADME, cell-based; conditions: HEK293, 3 h

Structure (SMILES)	logD [1]	pKa [2]	IC50 [3] [µM]
CCCc1nc2c(C)cc(-c3nc4ccccc4n3C)cc2n1Cc1ccc(-c2ccccc2C(=O)O)cc1	2.35	3.6	13.7
CNS(=O)(=O)Cc1ccc2[nH]cc(CCN(C)C)c2c1	-1.08	8.7	–
CCCCc1nc(C)c(CC(=S)N(C)C)c(=O)n1Cc1ccc(-c2ccccc2-c2nnn[nH]2)cc1	0.91	4.2	15.7
O=C(O)CSc1nnc(Br)n1-c1ccc(C2CC2)c2ccccc12	0.46	3.4	11.5
O=C1NC(=O)N(/N=C/c2ccc(-c3ccc([N+](=O)[O-])cc3)o2)C1O (stereo not given)	–	–	16
CN(C)CCCN1c2ccccc2CCc2ccccc21 [IMIPRAMINE]	–	9	–
COc1ccc2c(c1)c(CC(=O)O)c(C)n2C(=O)c1ccc(Cl)cc1 [INDOMETHACIN]	1.03	–	2.9
CC(C(=O)O)c1cccc(C(=O)c2ccccc2)c1 (stereo not given) [KETOPROFEN]	0.21	–	14.9
COC(=O)C1=C(C)NC(C)=C(C(=O)OC)C1c1ccccc1[N+](=O)[O-] [NIFEDIPINE]	–	–	6.5
Cc1ccc(O)c([C@H](CCN(C(C)C)C(C)C)c2ccccc2)c1 [TOLTERODINE]	1.82	9.2	–

The next lines start with the values.

logD [1]	pKa [2]	IC50 [3] [µM]	Structure (SMILES)
0.65	3.2	–	C[C@H]1CN(C[C@H](Cc2ccccc2)C(=O)NCC(=O)O)CC[C@@]1(C)c1cccc(O)c1 [ALVIMOPAN]
-0.08	6.3	–	CNn1cc(C(=O)O)c(=O)c2cc(F)c(N3CCN(C)CC3)cc21 [AMIFLOXACIN]
0.57	9.6	–	CNCC[C@@H](Oc1ccccc1C)c1ccccc1 [ATOMOXETINE]
–	–	16	O=C1CN(/N=C/c2ccc(-c3ccc([N+](=O)[O-])cc3)o2)C(=O)N1 [DANTROLENE]
0.23	4.2	1.9	CCN(CC)C(=O)/C(C#N)=C/c1cc(O)c(O)c([N+](=O)[O-])c1 [ENTACAPONE]
2.15	–	14.9	COc1ccc(Cl)cc1C(=O)NCCc1ccc(S(=O)(=O)NC(=O)NC2CCCCC2)cc1 [GLYBURIDE]
0.04	2.1	–	N=C(N)NCCCNC(=O)[C@@H]1CCCCN1C(=O)[C@@H](CC1CCCCC1)NCC(=O)O [INOGATRAN]
-1.88	2.8	–	COc1cccc(OC)c1C(=O)N[C@@H]1C(=O)N2[C@@H]1SC(C)(C)[C@@H]2C(=O)O [METHICILLIN]
2.55	4.6	9.5	CN(C)C(=O)CCSC(SCCC(=O)O)c1cccc(/C=C/c2ccc3ccc(Cl)cc3n2)c1 (stereo not given) [MK-571]
-1.19	9.3	–	CC(C)(C)NCC(O)COc1cccc2c1CC(O)C(O)C2 (stereo not given) [NADOLOL]
-1.93	3.5	–	Nc1nc2[nH]cc(CCc3ccc(C(=O)N[C@@H](CCC(=O)O)C(=O)O)cc3)c2c(=O)[nH]1 [PEMETREXED]
-1.17	4.8	–	Cc1noc(NS(=O)(=O)c2ccc(N)cc2)c1C [SULFISOXAZOLE]
0.42	6	11.5	N[C@@H]1[C@H]2CN(c3nc4c(cc3F)c(=O)c(C(=O)O)cn4-c3ccc(F)cc3F)C[C@@H]12 [TROVAFLOXACIN]
-0.63	8.7	–	CN(C)CCc1c[nH]c2ccc(C[C@H]3COC(=O)N3)cc12 [ZOLMITRIPTAN]
